Data published in US20040067547A1, “Rapid method for detecting micro-organisms and evaluating antimicrobial activity” (priority 1998, published 2004).

Test system: Streptococcus pneumoniae
Experiment: Antibiotic sensitivity testing by zeta potential measurement (ZETASIZER 2000)
Type: cell-based
Details: about 10^5 cells in growth medium with penicillin at 0.01 g/ml, incubated at 37° C. for 3 h; about 0 mV = dead cells, untreated −27.9 mV
Experimental: The following Example illustrates a particular embodiment of the invention: Streptococcus pneumoniae was grown for about 4 h in laked horse blood medium. Aliqouts, representing about 10^5 cells, were transferred to two tubes containing growth medium: one of these also contained penicillin at 0.01 g/ml. The zeta potential of both samples was measured using a ZETASIZER 2000 (RTM) from Malvern Instruments. The tubes were incubated at 37° C. for 3 h, and the zeta potential of each measured again. […] There is a clear difference in these profiles. In both Figures, the peak at 0 mV represents dead cells. The zeta potential of all dead micro-organisms is close to 0 mV: without wishing to be bound by a particular theory, it is believed that these changes are brought about by the vacuolation of the cells, resulting in the zeta potential decaying to about 0 mv. The other peak in FIG. 4 is believed also to be cells of S pneumoniae, but which are […].

penicillin
Mean Zeta Potential for S pneumoniae: −0.3 mV
